Target: T1, alpha7 nicotinic acetylcholine receptor (Rattus norvegicus, UniProt Q05941)
T1 construct: expressed in transfected cells
Type: cell-based
Settings: agonist concentration-response 0.001 to 30 microM; rat alpha7 nAChR in GH4C1 cells; assay validation
Excerpt: Rat GH4C1 cells were then transfected with the rat receptor, cloned and analyzed for functional alpha7 nicotinic receptor expression employing a FLIPR assay to measure changes in intracellular calcium concentrations. […] Three cell lines were then expanded and one characterised pharmacologically (see Table 2 below) prior to its subsequent use for compound screening.
The FLIPR system allows the measurements of real time Ca^2+-concentration changes in living cells using a Ca^2+ sensitive fluorescence dye (such as Fluo4). This instrument enables the screening for agonists and antagonists for alpha 7 nAChR channels stably expressed in GH4C1 cells.
GH4C1 cells stably transfected with rat-alphα7-nAChR (see above) were used. These cells are poorly adherent and therefore pretreatment of flasks and plates with poly-D-lysine was carried out. Cells are grown in 150 cm^2 T-flasks, filled with 30 ml of medium at 37° C. and 5% CO2.
EC50 and IC50 values were calculated using the IDBS XLfit4.1 software package employing a sigmoidal concentration-response (variable slope) equation:
The compounds were tested using the functional FLIPR primary screening assay employing the stable recombinant GH4C1 cell line expressing the alpha7 nAChR. Hits identified were validated further by generation of concentration-response curves.

T1 sequence (Q05941 23-502): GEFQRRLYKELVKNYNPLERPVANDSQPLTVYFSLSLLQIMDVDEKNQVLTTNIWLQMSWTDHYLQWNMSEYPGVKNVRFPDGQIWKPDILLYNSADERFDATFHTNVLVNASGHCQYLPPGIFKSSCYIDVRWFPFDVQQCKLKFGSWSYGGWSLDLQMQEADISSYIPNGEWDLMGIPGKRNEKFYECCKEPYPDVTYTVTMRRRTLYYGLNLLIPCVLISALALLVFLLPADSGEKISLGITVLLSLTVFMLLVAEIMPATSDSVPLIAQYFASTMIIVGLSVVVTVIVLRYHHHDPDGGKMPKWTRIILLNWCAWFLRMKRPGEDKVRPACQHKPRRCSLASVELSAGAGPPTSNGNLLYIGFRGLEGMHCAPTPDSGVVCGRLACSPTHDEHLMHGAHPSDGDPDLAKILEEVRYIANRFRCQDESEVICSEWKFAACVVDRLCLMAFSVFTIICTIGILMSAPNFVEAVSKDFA

Structure (SMILES): C[N+]1(C)CCN(c2ccccc2)CC1 [DMPP]
- EC50: 0.98 ± 0.47 µM

From patent US20100016288A1 (priority 2008, published 2010)
